According to patent US8435978B2, “Substituted sulfonamide compounds” (Gruenenthal GmbH, priority 2006, dated 2013):

Experiments:
[1] = molecular target: T1, human B1R receptor (Homo sapiens, UniProt P46663); assay: Functional study on the bradykinin receptor 1 (B1R), FLIPR Ca2+ assay, hB1R cells; assay type: cell-based; details: agonist Lys-Des-Arg9-bradykinin 0.5 nM, % inhibition compared with the maximum achievable inhibition; for inhibition at 10 µM: CHO-K1, test substance 10 μM, read-out: B1R Antagonism, human [10 μM] % Inhibition
T1 construct: host or cells: CHO K1 cells (Chinese hamster ovary), stably transfected
T1 sequence (P46663 1-353): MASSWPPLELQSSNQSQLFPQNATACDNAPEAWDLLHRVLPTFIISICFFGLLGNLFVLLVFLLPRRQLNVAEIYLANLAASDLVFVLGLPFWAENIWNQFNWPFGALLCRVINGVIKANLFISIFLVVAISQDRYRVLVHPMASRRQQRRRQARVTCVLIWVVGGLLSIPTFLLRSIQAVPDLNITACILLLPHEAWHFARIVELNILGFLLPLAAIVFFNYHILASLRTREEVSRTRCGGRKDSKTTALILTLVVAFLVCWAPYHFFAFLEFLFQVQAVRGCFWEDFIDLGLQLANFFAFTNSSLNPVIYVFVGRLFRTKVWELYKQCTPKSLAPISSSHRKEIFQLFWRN
In short: (§1)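 CHO K1 cells stably expressing human or rat B1R, Fluo-4-loaded; test compound 10 μM added first (activation % vs agonist), then after 10 min 0.5 nM Lys-Des-Arg9-bradykinin (human) or 100 nM Des-Arg9-bradykinin (rat). Ca2+ peak fluorescence by FLIPR; % inhibition relative to maximum achievable inhibition.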

[2] = molecular target: T2, B1R receptor of the rat (Rattus norvegicus, UniProt P97583); assay: Functional study on the bradykinin receptor 1 (B1R), FLIPR Ca2+ assay, rB1R cells; assay type: cell-based; details: agonist Des-Arg9-bradykinin 100 nM, % inhibition compared with the maximum achievable inhibition; for inhibition at 10 µM: CHO-K1, test substance 10 μM, read-out: B1R Antagonism, rat [10 μM] % Inhibition
T2 construct: host or cells: CHO K1 cells (Chinese hamster ovary), stably transfected
T2 sequence (P97583 1-337): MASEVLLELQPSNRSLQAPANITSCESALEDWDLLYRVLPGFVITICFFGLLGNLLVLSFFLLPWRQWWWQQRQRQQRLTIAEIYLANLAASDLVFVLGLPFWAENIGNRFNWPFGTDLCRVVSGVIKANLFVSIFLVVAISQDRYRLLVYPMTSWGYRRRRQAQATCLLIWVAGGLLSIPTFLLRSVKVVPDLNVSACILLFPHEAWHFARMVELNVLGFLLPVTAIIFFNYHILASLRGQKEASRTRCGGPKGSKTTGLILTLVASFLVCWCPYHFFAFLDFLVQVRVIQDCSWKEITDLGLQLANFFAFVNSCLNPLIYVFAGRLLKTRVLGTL
In short: as §1

inhibition at 10 µM [1] [%]	inhibition at 10 µM [2] [%]	B1R Antagonism, human [10 μM] % Inhibition ([1]; test substance 10 μM, hB1R CHO K1 cells) [%]	B1R Antagonism, rat [10 μM] % Inhibition ([2]; test substance 10 μM, rB1R CHO K1 cells) [%]	SMILES
99.6	101	–	–	COc1cc(C)c(S(=O)(=O)N2CCCCC2CCOCC(=O)N2CCN(C3CCN(C)CC3)CC2)c(C)c1 (stereo not drawn) [Example 164, 2-(2-(1-(4-methoxy-2,6-dimethylphenylsulfonyl)piperidin-2-yl)ethoxy)-1-(4-(1-methylpiperidin-4-yl)piperazin-1-yl)ethanone]
105	99	–	–	CN1CCC(CN2CCN(C(=O)COC[C@@H]3Cc4ccccc4CN3S(=O)(=O)c3ccc(Cl)cc3Cl)CC2)CC1 [Example 184, (S)-2-((2-(2,4-dichlorophenylsulfonyl)-1,2,3,4-tetrahydroisoquinolin-3-yl)methoxy)-1-(4-((1-methylpiperidin-4-yl)methyl)piperazin-1-yl)ethanone]
104	101	–	–	COc1cc(C)c(S(=O)(=O)N2CCCCC2COCC(=O)N2CCN(Cc3cnc(N(C)C)nc3)CC2)c(C)c1 (stereo not drawn) [Example 199, 1-(4-((2-(dimethylamino)pyrimidin-5-yl)methyl)piperazin-1-yl)-2-((1-(4-methoxy-2,6-dimethylphenylsulfonyl)piperidin-2-yl)methoxy)ethanone]
45.5	54.5	–	–	O=C(COCC1Cc2ccccc2CN1S(=O)(=O)c1ccc(Cl)cc1Cl)N1CCCN(Cc2ccccc2)CC1 (stereo not drawn) [Example 79, 1-(4-benzyl-[1,4]diazepan-1-yl)-2-[2-(2,4-dichloro-phenylsulfonyl)-1,2,3,4-tetra-hydro-isoquinolin-3-ylmethoxy]-ethanone]
65.9	92.3	–	–	O=C(COCC1CCCN1S(=O)(=O)c1c(Cl)cc(Cl)cc1Cl)NCc1ccc(CN2CCOCC2)cc1 (stereo not drawn) [Example 49, N-(4-morpholin-4-ylmethyl-benzyl)-2-[1-(2,4,6-trichloro-phenylsulfonyl)-pyrrolidin-2-ylmethoxy]-acetamide]
82.7	47.7	–	–	Cc1cc(C)c(S(=O)(=O)N2Cc3ccccc3CC2COCC(=O)NCc2cccc(N3CCN(C)CC3)c2)c(C)c1 (stereo not drawn) [Example 33, N-[3-(4-methyl-piperazin-1-yl)-benzyl]-2-[2-(2,4,6-trimethyl-phenylsulfonyl)-1,2,3,4-tetrahydro-isoquinolin-3-ylmethoxy]-acetamide]
1.85	107	–	–	COc1cc(C)c(S(=O)(=O)N2CCCC2COCC(=O)NCc2ccc(N(C)C)cc2)c(C)c1 (stereo not drawn) [Example 576, N-(4-(dimethylamino)benzyl)-2-((1-(4-methoxy-2,6-dimethylphenylsulfonyl)pyrrolidin-2-yl)methoxy)acetamide]
11.7	107	–	–	COc1cc(C)c(S(=O)(=O)N2CCCCC2COCC(=O)Nc2cc(-c3ccc(C)cc3)n[nH]2)c(C)c1 (stereo not drawn) [Example 544, 2-((1-(4-methoxy-2,6-dimethylphenylsulfonyl)piperidin-2-yl)methoxy)-N-(3-p-tolyl-1H-pyrazol-5-yl)acetamide]
54.2	98.7	–	–	COc1cc(C)c(S(=O)(=O)N2CCCC2COCC(=O)NCCCN2CCCCC2)c(C)c1 (stereo not drawn) [Example 522, 2-((1-(4-methoxy-2,6-dimethylphenylsulfonyl)pyrrolidin-2-yl)methoxy)-N-(3-(piperidin-1-yl)propyl)acetamide]
102	60.6	–	–	COc1cc(C)c(S(=O)(=O)N2CCCCC2COCC(=O)NCCCN2C(C)CCCC2C)c(C)c1 (stereo not drawn) [Example 260, N-(3-(2,6-dimethylpiperidin-1-yl)propyl)-2-((1-(4-methoxy-2,6-dimethylphenylsulfonyl)piperidin-2-yl)methoxy)acetamide]
65.1	87.9	–	–	O=C(COCC1Cc2ccccc2CN1S(=O)(=O)c1ccc(Cl)cc1Cl)N1CCCC1CN1CCCCC1 (stereo not drawn) [Example 51, 2-[2-(2,4-dichloro-phenylsulfonyl)-1,2,3,4-tetrahydro-isoquinolin-3-ylmethoxy]-1-(2-piperidin-1-ylmethyl-pyrrolidin-1-yl)-ethanone]
101	103	–	–	O=C(COCC1CCCN1S(=O)(=O)c1c(Cl)cccc1Cl)N1CCN(Cc2ccc(Br)cc2)CC1 (stereo not drawn) [Example 358, 1-(4-(4-bromobenzyl)piperazin-1-yl)-2-((1-(2,6-dichlorophenylsulfonyl)pyrrolidin-2-yl)methoxy)ethanone]
103	108	–	–	COc1cccc(-c2cc(NC(=O)COCC3CCCCN3S(=O)(=O)c3c(C)cc(OC)cc3C)n[nH]2)c1 (stereo not drawn) [Example 541, 2-((1-(4-methoxy-2,6-dimethylphenylsulfonyl)piperidin-2-yl)methoxy)-N-(5-(3-methoxyphenyl)-1H-pyrazol-3-yl)acetamide]
98.3	99.1	–	–	Cc1cc(Br)cc(C)c1S(=O)(=O)N1CCCCC1COCC(=O)N1CCN(c2ccncc2)CC1 (stereo not drawn) [Example 150, 2-((1-(4-bromo-2,6-dimethylphenylsulfonyl)piperidin-2-yl)methoxy)-1-(4-(pyridin-4-yl)piperazin-1-yl)ethanone]
104	98.8	–	–	COc1cc(C)c(S(=O)(=O)N2CCCCC2COCC(=O)N2CCN(CCc3ccccc3)CC2)c(C)c1 (stereo not drawn) [Example 373, 2-((1-(4-methoxy-2,6-dimethylphenylsulfonyl)piperidin-2-yl)methoxy)-1-(4-phenethylpiperazin-1-yl)ethanone]
83.4	102	–	–	Cc1ccc(N2CCN(C(=O)COCC3CCCN3S(=O)(=O)c3c(Cl)cccc3Cl)CC2)cc1C (stereo not drawn) [Example 355, 2-((1-(2,6-dichlorophenylsulfonyl)pyrrolidin-2-yl)methoxy)-1-(4-(3,4-dimethylphenyl)piperazin-1-yl)ethanone]
96.6	101	–	–	COc1cc(C)c(S(=O)(=O)N2CCCC2COCC(=O)N2CCN(Cc3ccccc3)CC2)c(C)c1 (stereo not drawn) [Example 460, 1-(4-benzylpiperazin-1-yl)-2-((1-(4-methoxy-2,6-dimethylphenylsulfonyl)pyrrolidin-2-yl)methoxy)ethanone]
70.4	101	–	–	O=C(COCC1CCCCN1S(=O)(=O)c1c(Cl)cccc1Cl)N(Cc1ccccc1)c1ccccn1 (stereo not drawn) [Example 486, N-benzyl-2-((1-(2,6-dichlorophenylsulfonyl)piperidin-2-yl)methoxy)-N-(pyridin-2-yl)acetamide]
104	100	–	–	CN1CCN(C2CCN(C(=O)COCC3CCCN3S(=O)(=O)c3c(Cl)cc(Cl)cc3Cl)CC2)CC1 (stereo not drawn) [Example 330, 1-(4-(4-methylpiperazin-1-yl)piperidin-1-yl)-2-((1-(2,4,6-trichlorophenylsulfonyl)pyrrolidin-2-yl)methoxy)ethanone]
100	100	–	–	Cc1cc(Br)cc(C)c1S(=O)(=O)N1CCCCC1COCC(=O)N1CCN(C2CCN(C)CC2)CC1 (stereo not drawn) [Example 148, 2-((1-(4-bromo-2,6-dimethylphenylsulfonyl)piperidin-2-yl)methoxy)-1-(4-(1-methylpiperidin-4-yl)piperazin-1-yl)ethanone]
95	99.8	–	–	COc1cc(C)c(S(=O)(=O)N2CCCC2COCC(=O)N(C)C(CN2CCN(C)CC2)c2ccccc2)c(C)c1 (stereo not drawn) [Example 446, 2-((1-(4-methoxy-2,6-dimethylphenylsulfonyl)pyrrolidin-2-yl)methoxy)-N-methyl-N-(2-(4-methylpiperazin-1-yl)-1-phenylethyl)acetamide]
–	–	75.25	99.75	COc1cc(C)c(S(=O)(=O)N2CCCCC2COCC(=O)Nc2cccc3cnccc23)c(C)c1 (stereo not drawn) [Example 258]
95.9	25.5	–	–	O=C(COCC1Cc2ccccc2N1S(=O)(=O)c1ccc(Cl)c(Cl)c1)NCC1CCCN(Cc2ccccc2)C1 (stereo not drawn) [Example 16, N-(1-benzyl-piperidin-3-ylmethyl)-2-[1-(3,4-dichloro-phenylsulfonyl)-2,3-dihydro-1H-indol-2-ylmethoxy]-acetamide]
101	97.9	–	–	COc1ccc(CN2CCN(C(=O)COCC3CCCCN3S(=O)(=O)c3c(C)cc(OC)cc3C)CC2)cc1 (stereo not drawn) [Example 386, 2-((1-(4-methoxy-2,6-dimethylphenylsulfonyl)piperidin-2-yl)methoxy)-1-(4-(4-methoxybenzyl)piperazin-1-yl)ethanone]
